Laboratory results published in ChEMBL document CHEMBL6182926, “Design, Synthesis, and Biological Activity Evaluation of Deuterated Diphenyl Azole Alcohol-Based CYP51 Inhibitors” (J Med Chem, 2025).
pIC50: −log10 of the molar value. ≈ marks a conversion by molar mass, not a printed value.

Legend:
[1] = test system: Candida albicans; test: Antifungal activity against Candida albicans CPCC 400616 assessed as inhibition of visible growth; format: functional
[2] = molecular target: Cytochrome P450 3A4 (Homo sapiens, UniProt P08684); test: Inhibition of CYP3A4 in human liver microsomes using midazolam as substrate measured after 10 mins by LC/MS/MS analysis; format: ADME, Microsome
Cytochrome P450 3A4, sequence (P08684 whole entry): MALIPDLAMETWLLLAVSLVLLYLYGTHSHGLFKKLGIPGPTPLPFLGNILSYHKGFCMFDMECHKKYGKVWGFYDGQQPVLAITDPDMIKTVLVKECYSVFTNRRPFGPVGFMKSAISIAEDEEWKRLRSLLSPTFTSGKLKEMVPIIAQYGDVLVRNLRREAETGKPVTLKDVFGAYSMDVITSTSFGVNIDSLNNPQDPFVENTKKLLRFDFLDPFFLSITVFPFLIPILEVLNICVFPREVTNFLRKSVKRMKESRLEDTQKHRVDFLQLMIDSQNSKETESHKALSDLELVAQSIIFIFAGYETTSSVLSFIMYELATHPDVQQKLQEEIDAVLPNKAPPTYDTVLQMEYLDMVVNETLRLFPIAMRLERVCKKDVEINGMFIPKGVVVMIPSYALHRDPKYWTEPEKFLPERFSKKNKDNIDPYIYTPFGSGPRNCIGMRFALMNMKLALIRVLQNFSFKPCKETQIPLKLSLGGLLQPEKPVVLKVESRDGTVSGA

[3] = test system: Mus musculus; test: In vivo antifungal activity against Candida albicans SC5314 infected in ICR mouse model assessed as mouse survival at 5 mg/kg, oral gavage measured for 21 days post infection; format: functional; details: 504 h, time 21 day
[4] = test system: Nakaseomyces glabratus; test: Inhibition of biofilm formation in clinical isolate Candida glabrata assessed as inhibition of metabolic activity of biofilm measured after 24 hrs by XTT assay; format: functional
[5] = test system: Candida albicans; test: Antifungal activity against Candida albicans SC5314 assessed as reduction in 14alpha-methylsterols at 0.05 ug/ml measured after 18 hrs incubation by gas chromatography-mass spectrometry (GCMS) analysis (reference value: 0.69%); format: functional; set-up: scale not given: the % may be the effect or the level left; details: dose 0.05 µg/ml
[6] = molecular target: Cytochrome P450 2C9 (Homo sapiens, UniProt P11712); test: Inhibition of CYP2C9 in human liver microsomes using diclofenac as substrate measured after 10 mins by LC/MS/MS analysis; format: ADME, Microsome
Cytochrome P450 2C9, sequence (P11712 whole entry): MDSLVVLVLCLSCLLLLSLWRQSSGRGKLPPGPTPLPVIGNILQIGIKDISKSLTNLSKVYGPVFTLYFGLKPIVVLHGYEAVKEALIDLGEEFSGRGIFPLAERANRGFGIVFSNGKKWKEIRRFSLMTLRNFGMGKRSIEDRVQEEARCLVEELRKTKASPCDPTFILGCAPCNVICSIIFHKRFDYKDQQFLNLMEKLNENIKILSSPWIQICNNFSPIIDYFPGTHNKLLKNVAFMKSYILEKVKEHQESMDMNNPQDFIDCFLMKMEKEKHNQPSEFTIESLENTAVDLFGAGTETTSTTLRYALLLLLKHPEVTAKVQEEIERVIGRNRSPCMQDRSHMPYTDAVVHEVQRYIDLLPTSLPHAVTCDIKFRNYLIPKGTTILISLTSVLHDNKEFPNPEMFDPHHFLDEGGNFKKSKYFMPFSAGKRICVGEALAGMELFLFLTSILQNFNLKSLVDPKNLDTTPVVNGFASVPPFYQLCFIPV

[7] = Tmax in Sprague-Dawley rat at 3 mg/kg, iv by LC-MS/MS analysis; format: ADME, organism-based; details: in vivo
[8] = Selectivity ratio, ratio of IC50 for cytotoxicity against human SH-SY5Y cells to MIC80 for antifungal activity against Candida parapsilosis GIM 2.190; format: toxicity, cell-based
[9] = Half life in Sprague-Dawley rat at 10 mg/kg, po by LC-MS/MS analysis; format: ADME, organism-based; details: in vivo
[10] = test system: Candida parapsilosis; test: Antifungal activity against Candida parapsilosis GIM 2.190 assessed as inhibition of visible growth; format: functional; details: Lodderomyces parapsilosis
[11] = Selectivity ratio, ratio of IC50 for cytotoxicity against human SH-SY5Y cells to MIC80 for antifungal activity against Candida albicans SC 5314; format: toxicity, cell-based
[12] = Cmax in Sprague-Dawley rat at 10 mg/kg, po by LC-MS/MS analysis; format: ADME, organism-based; details: in vivo
[13] = test system: Candida albicans; test: Antifungal activity against Candida albicans SC5314 assessed as reduction in Lanosterol at 0.05 ug/ml measured after 18 hrs incubation by gas chromatography-mass spectrometry (GCMS) analysis; format: functional; set-up: scale not given: the % may be the effect or the level left; details: dose 0.05 µg/ml
[14] = test system: Cryptococcus neoformans; test: Antifungal activity against Cryptococcus neoformans CGMCC 2.3161 assessed as reduction in Lanosterol at 0.0125 ug/ml measured after 18 hrs incubation by gas chromatography-mass spectrometry (GCMS) analysis; format: functional; set-up: scale not given: the % may be the effect or the level left; details: dose 0.0125 µg/ml
[15] = (§1) Selectivity ratio, ratio of IC50 for cytotoxicity against human SH-SY5Y cells to MIC80 for antifungal activity against Candida albicans CPCC 400616; format: toxicity, cell-based
[16] = Metabolic stability in human liver microsomes assessed as compound remaining measured up to 60 mins by LC-MS/MS analysis; format: ADME, Microsome; details: liver microsomes, read-out: Activity
[17] = Toxicity in ICR mouse assessed as mortality at 500 mg/kg, po single dose measured for 7 days; format: organism-based; details: in vivo, 168 h, time 7 day
[18] = Metabolic stability in human liver microsomes assessed as half life by LC-MS/MS analysis; format: ADME, Microsome; details: liver microsomes
[19] = Cytotoxicity against human HUVEC cells measured after 72 hrs by MTT assay; format: toxicity, cell-based
[20] = test system: Pichia kudriavzevii; test: Fungicidal index, ratio of MFC for fungicidal activity against Candida krusei AS 2.1045 to MIC80 for antifungal activity against Candida krusei AS 2.1045; format: functional
[21] = Oral bioavailability in Sprague-Dawley rat at 10 mg/kg by LC-MS/MS analysis; format: ADME, organism-based; details: in vivo
[22] = test system: Cryptococcus neoformans; test: Antifungal activity against Cryptococcus neoformans CGMCC 2.3161 assessed as reduction in Eburicol at 0.0125 ug/ml measured after 18 hrs incubation by gas chromatography-mass spectrometry (GCMS) analysis; format: functional; set-up: scale not given: the % may be the effect or the level left; details: dose 0.0125 µg/ml
[23] = test system: Cryptococcus neoformans; test: Fungicidal index, ratio of MFC for fungicidal activity against Cryptococcus neoformans CGMCC 2.3161 to MIC80 for antifungal activity against Cryptococcus neoformans CGMCC 2.3161; format: functional
[24] = test system: Candida albicans; test: Antifungal activity against Candida albicans SC5314 assessed as reduction in ergosterol at 0.05 ug/ml measured after 18 hrs incubation by gas chromatography-mass spectrometry (GCMS) analysis (reference value: 96.72%); format: functional; set-up: scale not given: the % may be the effect or the level left; details: dose 0.05 µg/ml
[25] = test system: Nakaseomyces glabratus; test: Antifungal activity against Clinical isolate Candida glabrata assessed as inhibition of visible growth; format: functional
[26] = Tmax in Sprague-Dawley rat at 10 mg/kg, po by LC-MS/MS analysis; format: ADME, organism-based; details: in vivo
[27] = test system: Candida albicans; test: Antifungal activity against Candida albicans SC 5314 assessed as inhibition of visible growth; format: functional
[28] = Subacute toxicity in ICR mouse assessed as structural alteration in liver at 100 mg/kg, oral gavage for 14 consecutive days by hematoxylin-eosin (H/E) staining analysis; format: organism-based; details: in vivo, 336 h, time 14 day
[29] = test system: Candida tropicalis; test: Antifungal activity against Candida tropicalis CGMCC 2.3739 assessed as inhibition of visible growth; format: functional
[30] = Cytotoxicity against human SH-SY5Y cells measured after 72 hrs by MTT assay; format: toxicity, cell-based
[31] = test system: Candida albicans; test: Antifungal activity against Candida albicans SC5314 assessed as reduction in Obtusifoliol at 0.05 ug/ml measured after 18 hrs incubation by gas chromatography-mass spectrometry (GCMS) analysis; format: functional; set-up: scale not given: the % may be the effect or the level left; details: dose 0.05 µg/ml
[32] = test system: Cryptococcus neoformans; test: Antifungal activity against Cryptococcus neoformans CGMCC 2.3161 assessed as inhibition of visible growth; format: functional
[33] = test system: Cryptococcus neoformans; test: Antifungal activity against Cryptococcus neoformans CGMCC 2.3161 assessed as reduction in ergosterol at 0.0125 ug/ml measured after 18 hrs incubation by gas chromatography-mass spectrometry (GCMS) analysis (reference value: 94.48%); format: functional; set-up: scale not given: the % may be the effect or the level left; details: dose 0.0125 µg/ml
[34] = test system: Cryptococcus neoformans; test: Antifungal activity against Cryptococcus neoformans CGMCC 2.3161 assessed as reduction in ergosterol at 0.125 ug/ml measured after 18 hrs incubation by gas chromatography-mass spectrometry (GCMS) analysis (reference value: 94.48%); format: functional; set-up: scale not given: the % may be the effect or the level left; details: dose 0.125 µg/ml
[35] = MRT (0 to infinity) in Sprague-Dawley rat at 10 mg/kg, po by LC-MS/MS analysis; format: ADME, organism-based; details: in vivo
[36] = (§2) Selectivity ratio, ratio of IC50 for cytotoxicity against human SH-SY5Y cells to MIC80 for antifungal activity against Candida tropicalis CGMCC 2.3739; format: toxicity, cell-based
[37] = test system: Pichia kudriavzevii; test: Antifungal activity against Candida krusei AS 2.1045 assessed as inhibition of visible growth; format: functional
[38] = as §1; format: toxicity, cell-based; remark: listed apart in the source
[39] = test system: Cryptococcus neoformans; test: Antifungal activity against Cryptococcus neoformans CGMCC 2.3161 assessed as reduction in 14alpha-methylsterols at 0.0125 ug/ml measured after 18 hrs incubation by gas chromatography-mass spectrometry (GCMS) analysis (reference value: 2.32%); format: functional; set-up: scale not given: the % may be the effect or the level left; details: dose 0.0125 µg/ml
[40] = Half life in Sprague-Dawley rat at 3 mg/kg, iv by LC-MS/MS analysis; format: ADME, organism-based; details: in vivo
[41] = as §2; format: toxicity, cell-based; remark: listed apart in the source
[42] = AUC (0 to infinity) in Sprague-Dawley rat at 10 mg/kg, po by LC-MS/MS analysis; format: ADME, organism-based; details: in vivo

What does the source list for `[2H]C([2H])([2H])N(Cc1ccc(-c2ccc(OC(F)(F)F)cc2)cc1)[C@H](C)[C@](O)(Cn1cncn1)c1ccc(F)cc1F`?
MIC80 [1]: 6 ng/mL (≈ 0.0112 µM); pIC50 [2]: 5.18; survival at 5 mg/kg [3]: 100%; MIC50 [4]: 62 ng/mL (≈ 0.116 µM); Activity [5]: 7.73%; pIC50 [6]: 5.75; Tmax [7]: 4.98 min; selectivity ratio [8]: > 100; half-life [9]: 4.42 h; MIC80 [10]: 6 ng/mL (≈ 0.0112 µM); selectivity ratio [11]: > 100; Cmax [12]: 601 ng/mL; Activity [13]: 21.92%; Activity [14]: 8.58%; selectivity ratio [15]: > 100; remaining at 1 h [16]: 34.4%; Activity [17]: Non-toxic; half-life [18]: 0.67 h; IC50 at 72 h [19]: 23.5 µM; Activity_index [20]: 10; bioavailability [21]: 63.4%; Activity [22]: 11.59%; Activity_index [23]: 5; Activity [24]: 3.68%; MIC80 [25]: 12 ng/mL (≈ 0.0224 µM); Tmax [26]: 2.67 h; MIC80 [27]: 6 ng/mL (≈ 0.0112 µM); Activity [28]: Non-toxic; MIC80 [29]: 6 ng/mL (≈ 0.0112 µM); IC50 at 72 h [30]: 25.2 µM; Activity [31]: 18%; MIC80 [32]: 12 ng/mL (≈ 0.0224 µM); Activity [33]: 62.56%; Activity [34]: 5.68%; MRT inf [35]: 6.18 h; selectivity ratio [36]: > 100; MIC80 [37]: 12 ng/mL (≈ 0.0224 µM); selectivity ratio [38]: > 100; Activity [39]: 3.13%; t1/2 [40]: 6.79 h; selectivity ratio [41]: > 100; AUC(0-inf) [42]: 4830 ng·h/mL
